Measurements: patent US10851386B2, “Plants transformed to express a phosphite dehydrogenase enzyme capable of metabolizing phosphite to reduce competition from weeds” (Centro de Investigación y de Estudios Avanzados del …, priority 2008, dated 2020)

Experiments:
[1] = test system: transgenic tobacco homozygous for the 35S::PtxD gene; experiment: Tobacco seedling growth in MS media with phosphate or phosphite as only phosphorus source; type: in vivo, Nicotiana tabacum; conditions: for seedling growth: MS media, 25 days after germination, FIG. 13
Method: (§1) Nicotiana tabacum was transformed with the expression construct described in Example 1. In particular, tobacco leaf explants were co-cultivated with an Agrobacterium strain harboring a 35S::PtxD construct (Example 1) within its T-DNA. Leaf discs were allowed to regenerate in MS media containing 1 mM phosphite as the only phosphorus source. Plants regenerated from these leaf discs on phosphite-containing media were transferred to soil and allowed to set seed under greenhouse conditions.
(§2) The presence or absence of growth (after depletion of seed-furnished phosphorus) is indicated by a plus (+) or a minus (−) symbol, respectively.
(§3) Seedlings were germinated and maintained in MS media supplemented with 1 mM phosphite as the only phosphorus source for 25 days. The seedlings then were transferred to tissue culture flasks containing MS with 1 mM phosphite as the only phosphorus source and were allowed to grow for 25 additional days in a plant growth chamber at 23° C., with a photoperiod of 18 h light, followed by 6 h darkness for each 24-hour period.

[2] = test system: transgenic PTXD-3 and PTXD-5 lines; experiment: Growth on liquid growth medium with phosphite or phosphate as phosphorus source; type: in vivo, Arabidopsis thaliana
Method: Two transgenic Arabidopsis lines, dubbed PTXD-3 and PTXD-5, were prepared and isolated as described in Example 1. Each line is homozygous for the ptxD expression construct of Example 1.
(§4) The parental line and the PTXD-3 and PTXD-5 transgenic lines were tested for the ability to grow on a liquid medium, with or without inorganic phosphate (Pi) as the source of phosphorus. Seeds from the parental and transgenic lines were germinated in liquid media and tested for growth.
(§5) In FIG. 7, the absence or presence of sustained plant growth (beyond the germination stage) is identified with a minus (−) or a plus (+) symbol, respectively. […] Therefore, the transgenic lines acquired the ability to metabolize phosphite as a phosphorus source to support plant growth.

parental (WT) line Col-0 = experiment: as above; type: in vivo, Arabidopsis thaliana
Method: as §4, §5

[3] = test system: transgenic plants (PTXD-3 and PTXD-5); experiment: Reduction of total phosphorus in growth medium containing phosphite (vanadium-molybdate method); type: in vivo, Arabidopsis thaliana; conditions: initially 50, 100 or 1000 μM phosphite; 45 days; 100 plants per container; FIG. 8
Text: Wild type and the two transgenic Arabidopsis lines, PTXD-3 and PTXD-5, were germinated and cultivated in one-liter plastic containers with 0.1× Murashige and Skoog liquid medium lacking phosphate and supplemented with either 50, 100 or 1000 micromolar phosphorous acid (H3PO3). One hundred plants per plastic container were allowed to grow for 45 days in the plastic container in a growth chamber with a 16:8 light:dark cycle for each 24-hour period. The plants were covered to avoid moisture loss. A double layer of plastic mesh was placed where seeds were sown to germinate on top of liquid media in each plastic container.
After 45 days of growth the total phosphorus content was determined in the liquid media, after removing the plants, using a vanadium-molybdate method. Briefly, 5 mL of liquid media from each sample was digested with nitric acid:perchloric acid (HNO3:HClO4; 5:1). Then, the phosphorus content was determined with a colorimetric method based on the addition of a solution of ammonium molybdate (20 mM) and ammonium metavanadate (10 mM) in 70% perchloric acid. After a 20-minute incubation at room temperature, the absorbance at 400 nm was measured with a spectrophotometer.
In FIG. 8, the first three bars labeled as “initial” represent the initial concentration of total phosphorus in the media without plants. […]

[4] = test system: control tobacco seedlings; experiment: Tobacco seedling growth in MS media with phosphate or phosphite as only phosphorus source; type: in vivo, Nicotiana tabacum
Method: as §1, §2, §3

[5] = test system: Control plants (wild-type Col-0); experiment: Growth in media containing only phosphite as external source of phosphorus; type: in vivo, Arabidopsis thaliana; conditions: only phosphite (about 0.1 to 5 mM) as external source of phosphorus
Method: (§6) The transformed Agrobacterium clone was used to transform Arabidopsis thaliana (ecotype Col-0) (generally described herein as “wild-type” (WT)) using a modified floral dip method. Transformed T0 progeny were selected using phosphinothricin resistance. In particular, screening was performed with MS 0.1× media containing phosphinothricin (20 mg/L). Twenty-eight resistant lines were identified through PCR amplification of the ptxD gene.
(§7) The ptxD transgenic plants were tested for their ability to grow in media containing only phosphite (e.g., about 0.1 to 5 mM) as an external source of phosphorus.

ptxD transgenic plants = experiment: Growth or selection in media containing only phosphite as external source of phosphorus; type: in vivo, Arabidopsis thaliana
Method: as §6, §7
The ptxD expression construct also was used to provide a selectable marker for selection of transgenic plants with modified phosphorus metabolism. Wild-type Col-0 plants were transformed using Agrobacterium containing the ptxD expression construct. T0 progeny (seeds) were plated on a medium with phosphite (5 mM) as the source of phosphorus.

parental (WT) plants = experiment: Growth and dry weight on sand:vermiculite substrate with phosphate or phosphite; type: in vivo, Arabidopsis thaliana; conditions: sand:vermiculite (1:1)
Method: (§8) FIGS. 10 and 11 show photographs of parental and ptxD transgenic plants distributed according to FIG. 9 and tested for growth on a substrate containing added phosphate (Pi) (FIG. 10) or phosphite (Phi) (FIG. 11) as the source of phosphorus. […] The plants here and in FIG. 11 were grown in a sand:vermiculite mixture (1:1) and received water and nutrient solutions (lacking any other phosphorus source except as previously indicated) periodically.
(§9) The dry weight of three plants cultivated in sand:vermiculite (1:1) as substrate is plotted in the figure with respect to each particular plant line and source(s) of phosphorus.

[6] = test system: ptxD transgenic (PTXD) plants; experiment: as above; type: in vivo, Arabidopsis thaliana; conditions: sand:vermiculite (1:1)
Method: as §8, §9

[7] = 50 μM inorganic phosphate, FIG. 7
[8] = MS with 1 mM phosphite as only phosphorus source, 25 days plus 25 additional days, FIG. 14
[9] = 50, 100, and 1000 μM inorganic phosphite as phosphorus source, FIG. 7

Compound	seedling growth ([1]; 1 mM Pi as only phosphorus source)	growth [2, 7]	growth ([2]; 50, 100, and 1000 μM phosphate)	growth (parental (WT) line Col-0; [7])	growth (parental (WT) line Col-0; 50, 100, and 1000 μM phosphate)	decrease of phosphorus content in the media (removal of phosphite) [3]	seedling growth ([1]; 1 mM Phi as only phosphorus source)	growth [1, 8]	seedling growth ([4]; MS media, 1 mM Phi as only phosphorus source, 25 days after germination, FIG. 13)	growth and development [4, 8]	growth [2, 9]	growth [5]	growth (parental (WT) line Col-0; [9])	growth of T0 progeny relative to wild type plants (ptxD transgenic plants; medium with phosphite (5 mM) as the source of phosphorus, FIG. 6)	growth (ptxD transgenic plants; only phosphite (about 0.1 to 5 mM) as external source of phosphorus)	sustained growth on substrate (parental (WT) plants; added phosphite (Phi), FIG. 11)	growth (dry weight of three plants) (parental (WT) plants; phosphite as the source of phosphorus, FIG. 12)	growth (dry weight of three plants) on phosphite relative to phosphate ([6]; FIG. 12)	sustained growth on substrate ([6]; added phosphite (Phi), FIG. 11)
O=P(O)(O)O [phosphate, phosphoric acid (H3PO4)]	sustained growth	grew efficiently	grew efficiently	grew efficiently	grew efficiently														
OP(O)O [phosphite, phosphorous acid (H3PO3)]						more than 50%	sustained growth	able to sustain rapid growth	unable to sustain normal growth	unable to use phosphite	grew efficiently	no substantial growth	but not the parental line	substantial growth advantage	grew efficiently	only the transgenic plants were capable of sustained growth	did not grow substantially	grew similarly or better	only the transgenic plants were capable of sustained growth
